Where “and” joins values, the source holds several entries; their conditions need not be identical. Equal entries are not always repeated.
Assays:
Format in all cases: biochemical
fXIa [1] = biological target: T1, fXIa (Homo sapiens, UniProt P03951); assay: Inhibition kinetics (kobs/I) of inhibitor and fluorescent ABP; design: complete conversion of the single chain zymogen to the two-chain active form; made in house; host or cells: HEK293 cells expressing EBNA (pCEP4 vector); conditions: pseudo-first-order, ABP/inhibitor 308 nM to 50 μM, 10 nM enzyme, substrate 100 μM SMX1, 37 °C, 30 min, corrected for substrate KM; mean ± s.d., n = 3; SD
T1 sequence (P03951 388-625 limits assumed): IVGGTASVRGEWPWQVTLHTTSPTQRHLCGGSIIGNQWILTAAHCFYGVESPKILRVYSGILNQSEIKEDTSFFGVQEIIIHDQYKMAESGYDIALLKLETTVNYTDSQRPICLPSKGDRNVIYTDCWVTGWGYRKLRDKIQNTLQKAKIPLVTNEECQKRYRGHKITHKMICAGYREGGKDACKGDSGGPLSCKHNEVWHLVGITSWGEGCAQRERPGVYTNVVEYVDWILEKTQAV
T1 sequence (P03951 19-387 partner limits assumed): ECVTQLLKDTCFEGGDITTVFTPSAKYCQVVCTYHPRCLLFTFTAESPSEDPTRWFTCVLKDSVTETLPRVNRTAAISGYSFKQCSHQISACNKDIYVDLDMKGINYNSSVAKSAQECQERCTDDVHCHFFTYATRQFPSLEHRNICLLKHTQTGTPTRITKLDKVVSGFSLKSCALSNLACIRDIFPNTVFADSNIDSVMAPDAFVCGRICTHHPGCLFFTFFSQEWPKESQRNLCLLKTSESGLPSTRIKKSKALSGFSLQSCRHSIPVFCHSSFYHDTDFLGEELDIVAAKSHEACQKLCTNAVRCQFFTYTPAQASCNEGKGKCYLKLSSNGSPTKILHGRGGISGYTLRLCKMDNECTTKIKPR
Experimental: (§1) All kinetic assays were performed using a spectrofluorometer (Molecular Devices SpectraMax Gemini XPS) on 96-well, white, flat bottom, nontreated plates (Corning). The parameters were as follows: excitation/emission wavelength, 355/460 nm (cutoff, 455 nm); varying concentrations of substrates, ABPs, inhibitor, and enzymes. The assay buffer (20 mM Tris-base, 150 mM NaCl, 5 mM CaCl2, pH 7.4) was prepared at room temperature, and the enzyme kinetic studies were performed at 37 °C. All enzymes were preincubated in assay buffer for 15 min at 37 °C before addition to the wells. Each assay was repeated at least twice, and the data represent the average of these repetitions. The obtained results were analyzed using SoftMax (Molecular Devices), GraphPad Prism, and Microsoft Excel software.
The kobs/I parameters for APC, thrombin, fXa, and fXIa were measured under pseudo-first-order conditions. Inhibitor and ABP were serially diluted in assay buffer until the seventh well to obtain concentrations ranging from 308 nM to 50 μM. […] Next, 60 μL of APC, thrombin, fXa, or fXIa (at a concentration of 10 nM) preincubated at 37 °C was added, and the fluorescence increase over time was measured (λex = 355 nm, λem = 460 nm) for 30 min. The kobs/I parameters were calculated in GraphPad Prism and Microsoft Excel software.[41]

APC = biological target: T2, APC (Homo sapiens, UniProt P04070); assay: as above; conditions: pseudo-first-order, ABP/inhibitor 308 nM to 50 μM, 10 nM enzyme, substrate 154 μM SMA5, 37 °C, 30 min; mean ± s.d., n = 3; SD
T2 construct: from tissue; host or cells: fresh frozen plasma
T2 sequence (P04070 212-461 limits assumed): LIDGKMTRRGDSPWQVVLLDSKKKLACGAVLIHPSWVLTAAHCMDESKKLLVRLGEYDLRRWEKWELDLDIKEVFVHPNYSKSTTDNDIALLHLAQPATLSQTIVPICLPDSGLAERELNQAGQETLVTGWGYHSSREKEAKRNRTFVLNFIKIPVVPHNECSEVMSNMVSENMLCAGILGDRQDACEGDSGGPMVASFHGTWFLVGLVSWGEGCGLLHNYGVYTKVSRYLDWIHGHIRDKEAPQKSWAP
T2 sequence (P04070 43-197 partner limits assumed): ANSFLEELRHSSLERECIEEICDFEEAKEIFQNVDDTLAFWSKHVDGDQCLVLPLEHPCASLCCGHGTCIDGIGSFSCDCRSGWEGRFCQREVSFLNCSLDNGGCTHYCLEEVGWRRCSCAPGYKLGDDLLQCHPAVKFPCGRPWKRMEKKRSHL
Experimental: (§2) Protein C, factor X, and prothrombin were purified from fresh frozen plasma and then activated as previously described.[33]
as §1
(§3) The kobs/I parameters for APC, thrombin, fXa, and fXIa were measured under pseudo-first-order conditions. […] Next, 60 μL of APC, thrombin, fXa, or fXIa (at a concentration of 10 nM) preincubated at 37 °C was added, and the fluorescence increase over time was measured (λex = 355 nm, λem = 460 nm) for 30 min. The kobs/I parameters were calculated in GraphPad Prism and Microsoft Excel software.[41]

fXa = biological target: T3, fXa (Homo sapiens, UniProt P00742); assay: as above; conditions: pseudo-first-order, ABP/inhibitor 308 nM to 50 μM, 10 nM enzyme, substrate 50 μM SMII18, 37 °C, 30 min; mean ± s.d., n = 3; SD
T3 construct: from tissue; host or cells: fresh frozen plasma
T3 sequence (P00742 235-488 limits assumed): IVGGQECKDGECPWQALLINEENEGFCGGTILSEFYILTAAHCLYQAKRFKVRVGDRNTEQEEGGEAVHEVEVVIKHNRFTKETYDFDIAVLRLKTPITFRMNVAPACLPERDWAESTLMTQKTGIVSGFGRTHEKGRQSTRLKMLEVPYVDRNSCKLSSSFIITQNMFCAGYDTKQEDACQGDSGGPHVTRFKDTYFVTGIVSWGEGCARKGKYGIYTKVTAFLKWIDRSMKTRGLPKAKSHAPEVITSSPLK
T3 sequence (P00742 41-179 partner limits assumed): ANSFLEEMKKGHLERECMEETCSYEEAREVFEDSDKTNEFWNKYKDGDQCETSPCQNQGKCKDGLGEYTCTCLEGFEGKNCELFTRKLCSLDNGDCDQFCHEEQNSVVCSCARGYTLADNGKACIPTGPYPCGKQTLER
Experimental: as §2, §1, §3

fXIa [2] = biological target: T1, fXIa; assay: Labeling of purified coagulation factors with ABPs, SDS-PAGE and blot; design: complete conversion of the single chain zymogen to the two-chain active form; made in house; host or cells: HEK293 cells expressing EBNA (pCEP4 vector); conditions: 200 nM fXIa preincubated with 5 μM inhibitor for 60 min, then probe 1:1, 30 min
Experimental: To determine biotin-labeled ABPs selectivity, four purified coagulation factors (APC, thrombin, fXa, and fXIa) with a constant concentration of 200 nM were incubated separately with each probe (the probe/enzyme ratio was 1) in assay buffer for 30 min at 37 °C. Each enzyme was incubated with each probe in a volume of 40 μL followed by reduction with 20 μL of 3 × SDS/DTT for 5 min at 95 °C. The first well was loaded with 0.5 μL of the protein marker PageRuler Prestained Protein Ladder (Thermo Scientific), and then 10 μL of each sample was run on a 12% (w/v) 15-well gel. SDS–PAGE separation was performed at 200 V for 39 min followed by a wet tank transfer to a nitrocellulose membrane (0.2 μm, Bio-Rad) at 10 V for 60 min. The membrane was blocked with 2.5% BSA in TBS-T (Tris-buffered saline with 0.1% (v/v) Tween 20) for 60 min at room temperature. Next, the membrane was incubated with fluorescent streptavidin Alexa Fluor 647 conjugate (dilution 1:10,000 in TBS-T with 1% BSA) for 60 min. The biotin-labeled ABPs were detected at 658 nm using an Azure Biosystems Sapphire Biomolecular Imager and Azure Spot Analysis software.
For fluorescently labeled probe sample preparation, electrophoresis and membrane transfer were performed as described above. When testing the inhibitor utility, 200 nM fXIa was incubated with inhibitor (final inhibitor concentration 5 μM) for 60 min prior to probe addition. After the membrane was blocked with 2.5% BSA in TBS-T (60 min), the labeled proteins were directly imaged with a […] laser using an Azure Biosystems Sapphire Biomolecular Imager and Azure Spot Analysis software.

## Ac-Tyr(2,6-Cl2-Z)-Nle-Glu(Bzl)-ArgP(OPh)2 [I-SMXI5]
fXIa [1]
  kobs/I fXIa: 54,700 ± 2,800 M^-1 s^-1 and 54,700 ± 2800 M^-1 s^-1
APC
  kobs/I APC: 1,570 ± 20 M^-1 s^-1
fXa
  kobs/I fXa: 100 ± 13 M⁻¹ s⁻¹
fXIa [2]
  effect of preblocking fXIa on P-SMXI52 labeling: completely inhibited the fluorescent signal

Source: paper PMC10041521, “Fluorescent Activity-Based Probe To Image and Inhibit Factor XIa Activity in Human Plasma” (Journal of Medicinal Chemistry, 2023)
